According to patent US4636513A, “Isoxazole derivatives and medicaments containing these compounds” (Hoechst Aktiengesellschaft, priority 1984, dated 1987):
Values after ≈ are worked out from the molar mass of the structure shown. Read-outs that look alike come from different tables or passages of the source.

Key:
[1] = tested on: mice; experiment: Acetic acid extension test on mice (analgesic action); conditions: Mus musculus, po; for responders at 158 mg/kg: read-out: Animals which showed analgesic effect in % after an oral dose of 158 mg/kg; for ED50: read-out: Analgesic action ED50, acetic acid extension test (Mouse)
Protocol: (§1) (a) Acetic acid extension test on mice in accordance with the method of R. Koster et al., Fed. Prod.
(§2) Female mice of a N.M.R.I. strain with a body weight (BW) of between 21 and 28 g were used as the experimental animals. Groups of in each case 12 animals received 0.1 ml/10 g BW of a 0.6% strength acetic acid solution, injected intraperitoneally. The test substances were administered 30 minutes beforehand. Immediately after the acetic acid injection, the animals were placed individually and the typical extension movements occurring within 15 minutes were counted, these consisting of brief flexing of the abdominal muscles with withdrawal of the sides and subsequent extension of the rear of the body and of at least one rear extremity.
(§3) The test substances were administered orally in a volume of 10 ml/kg BW in 1% strength aqueous carboxymethylcellulose (CMC) suspension.

[2] = tested on: rats; experiment: Modified Randall-Selitto hyperalgesia test on rats (analgesic action); conditions: Rattus norvegicus, po, 2 h, read-out: Analgesic action ED50, Randall-Selitto test (Rat)
Protocol: (§4) (b) Modified Randall-Selitto hyperalgesia test on rats in accordance with the method of Atkinson et al., J. Pharm. Pharmac.
(§5) Male Sprague-Dawley rats with a body weight of 200 to 300 g were used as the experimental animals. The experimental animals were given a subplantar injection of 0.2 ml of brewer's yeast suspension (40% of yeast in 0.9% strength NaCl solution) into the left hind paw under mild ether anaesthesia. After 5 hours, the gait of the animals over a metal grating was evaluated according to the following scale:
(§6) The evaluation was effected by determining the percentage of animals evaluated with stage 1 or 0.5, two animals given 0.5 being regarded as showing an analgesic effect.
(§7) The test substances were administered orally, to animals which had been fasted for 15 hours, in CMC suspension in a volume of 10 ml/kg BW two hours before the evaluation of the animals. In order to exclude subjective influences, the evaluation was performed by two people independently of one another and without knowledge of the pretreatment of the animals (n=10/dose). The ED50 values were determined with the aid of linear regression in accordance with the method of Fieller and Sidak.

[3] = tested on: rats; experiment: Antipyretic action, yeast fever test on rats; type: in vivo, rat (female Sprague-Dawley); conditions: for Reduction in body temperature at 60 min / Reduction in body temperature at 120 min / Reduction in body temperature at 180 min / Reduction in body temperature at 240 min: rat, orally
Protocol: The investigations were carried out on female Sprague-Dawley rats with a body weight of 150 g and fed on drinking water ad libitum and a standard diet. […] The body temperature was measured rectally by means of second thermometers at room temperature (24° C.). The number of animals was n=6 per dose. The average reduction in body temperature in comparison with the simultaneous value of the untreated control animals was recorded.

[4] = Gastrointestinal ulcerogenicity; type: in vivo, rat (male Sprague-Dawley); conditions: rat, in vivo, po
Protocol: (§8) In this test on male Sprague-Dawley rats with a body weight of between 200 and 300 g, an increased sensitivity of the gastric mucosa toward the ulcerogenic action of non-steroid antiflammatories was induced by hunger stress (withdrawal of food for a total of 72 hours).
(§9) 48 hours before administration of the test substances, the food was withdrawn from the animals until the end of the experiment, the animals having free access to drinking water.
(§10) 24 hours after oral administration of the product, the animals were sacrificed and the stomachs were removed, cut along the lesser curvature, cleaned under running water and inspected for lesions in the mucous membrane. All the macroscopically visible lesions of the mucosa in the glandular atomach were regarded as ulcers. The proportion of animals with ulcers per dose was determined.
(§11) The test substances were administered as a solution in CMC suspension in a volume of 1 ml/100 g of body weight. The UD50 (dose at which 50% of the animals had ulcers) was determined with the aid of Probit analysis and the confidence range was determined by the method of Fieller.

[5] = tested on: isolated pig ureter; experiment: Inhibition of potassium chloride-induced spasms on the isolated pig ureter
Text: In contrast, the compounds of the formula I exert a significant inhibiting action in this experimental design.

[6] = biliary, gastrointestinal and urogenital tract; cited from earlier work
[7] = Acetic acid extension test on mice (analgesic action); conditions: mouse, in vivo, po
Protocol: as §1, §2, §3

[8] = Modified Randall-Selitto hyperalgesia test on rats (analgesic action); conditions: rat, in vivo, po
Protocol: as §4, §5, §6, §7

[9] = in vivo; set-up: species or system rat (male and female Wistar); conditions: po, rat, administered orally, read-out: Toxicity LD50
Protocol: The animals were used in the experiment after being fasted for about 18 hours and only received food again five hours after administration of the product. After a three-week observation period, they were sacrificed with chloroform and autopsied. The organs were assessed macroscopically. The test compounds were dissolved in 1% strength CMC suspension and administered to the rats through a stomach tube in a volume of 5 ml/kg BW.

[10] = tested on: prostaglandin synthetases; conditions: cited from earlier work
[11] = tested on: gastric mucosa; experiment: Gastrointestinal ulcerogenicity; type: in vivo, rat (male Sprague-Dawley); conditions: doses of up to 400 mg/kg, rat, oral
Protocol: as §8, §9, §10, §11

O=C(c1cnoc1C(F)(F)F)N1CCCCC1 [Example 8, N-(5-Trifluoromethyl-4-isoxazolylcarbonyl)-piperidine]
responders at 158 mg/kg [1]: 75%

Cc1oncc1C(=O)N1CCCC1 [Example 3, N-(5-Methyl-4-isoxazolylcarbonyl)-pyrrolidine]
responders at 158 mg/kg [1]: 83%

CCN(CC)C(=O)c1cnoc1C [5-Methyl-4-isoxazolecarboxylic acid N,N--diethylamide, reference compound]
responders at 158 mg/kg [1]: 25%

CC(=O)Nc1ccc(O)cc1 [Paracetamol, reference compound]
ED50 [1]: 155 mg/kg
responders at 158 mg/kg [1]: 50%
ED50 [2]: 334 mg/kg
Reduction in body temperature at 60 min ([3]; 100 mg/kg): 1.3 °C
Reduction in body temperature at 120 min ([3]; 100 mg/kg): 1.1 °C
Reduction in body temperature at 180 min ([3]; 100 mg/kg): 0.4 °C
Reduction in body temperature at 240 min ([3]; 100 mg/kg): 0 °C
TD50 at 24 h [4]: > 400 mg/kg
Inhibiting effect on spasms ([5]; potassium chloride): no inhibiting effect on spasms
Suitability for treating pain of spastic origin [6]: unsuitable for treating pain of spastic origin

O=C(c1cnoc1)N1CCCCC1 [Example 7, N-(4-Isoxazolylcarbonyl)-piperidine]
responders at 158 mg/kg [1]: 50%

Cc1oncc1C(=O)N1CCC(C)CC1 [Example 4, 4-Methyl-1-(5-methyl-4-isoxazolylcarbonyl)-piperidine]
responders at 158 mg/kg [1]: 67%

CCc1oncc1C(=O)N1CCCCC1 [Example 2, N-(5-Ethyl-4-isoxazolylcarbonyl)-piperidine]
responders at 158 mg/kg [1]: 83%

Cc1oncc1C(=O)N1CCSCC1 [Example 5, N-(5-Methyl-4-isoxazolylcarbonyl)-thiomorpholine]
responders at 158 mg/kg [1]: 59%

Cc1oncc1C(=O)N1CCC(O)CC1 [Example 6, 4-Hydroxy-1-(5-methyl-4-isoxazolylcarbonyl)-piperidine]
responders at 158 mg/kg [1]: 50%

CC(=O)Oc1ccccc1C(=O)O [Acetylsalicylic acid, reference compound]
selectivity ratio [7]: 10.9
ED50 [1]: 138 mg/kg
responders at 158 mg/kg [1]: 48%
selectivity ratio [8]: 8.2
ED50 [2]: 182 mg/kg
TD50 at 24 h ([4]; administered orally, fasted, 24 h after administration, read-out: Ulcerogenicity UD50): 31 mg/kg
LD50 at 504 h [9]: 1500 mg/kg
Inhibition of peripheral prostaglandin biosynthesis [10]: inhibitor of peripheral prostaglandin biosynthesis

Cc1oncc1C(=O)N1CCOCC1 [Example 10, N-(5-Methyl-4-isoxazolylcarbonyl)-morpholine]
responders at 158 mg/kg [1]: 42%

Cc1oncc1C(=O)N1CCCCC1 [Example 1, N-(5-Methyl-4-isoxazolylcarbonyl)-piperidine]
ED50 [1]: 45 mg/kg
responders at 158 mg/kg [1]: 83%
ED50 [2]: 85 mg/kg
Reduction in fever in comparison with Paracetamol ([3]; 50 mg/kg oral versus Paracetamol 100 mg/kg oral): both more powerful and clearly lasts longer than that of the comparison product Paracetamol
Reduction in body temperature at 60 min ([3]; 50 mg/kg): 1.3 °C
Reduction in body temperature at 120 min ([3]; 50 mg/kg): 1.6 °C
Reduction in body temperature at 180 min ([3]; 50 mg/kg): 1.3 °C
Reduction in body temperature at 240 min ([3]; 50 mg/kg): 0.8 °C
Reduction in body temperature at 60 min ([3]; 100 mg/kg): 2.0 °C
Reduction in body temperature at 120 min ([3]; 100 mg/kg): 2.0 °C
Reduction in body temperature at 180 min ([3]; 100 mg/kg): 1.5 °C
Reduction in body temperature at 240 min ([3]; 100 mg/kg): 1.1 °C
TD50 at 24 h [4]: > 400 mg/kg
Lesions of the mucous membrane [11]: no lesions of the mucous membrane were detected
IC50 ([5]; Sus scrofa, potassium chloride-induced spasms, read-out: ED50 (inhibition of spasms), concentration): 410 µg/mL (≈ 2110 µM)

Cc1noc(C)c1C(=O)N1CCCCC1 [3,5-Dimethyl-4-isoxazole-carboxylic acid piperidide, reference compound]
responders at 158 mg/kg [1]: 25%

CCCc1oncc1C(=O)N1CCCCC1 [Example 9, N-(5-Propyl-4-isoxazolylcarbonyl)-piperidine]
responders at 158 mg/kg [1]: 67%
